In series [1] the test system is gastric carcinoma in Mongolian gerbils. The experiment in a line: Suppression of gastric carcinogenesis in gerbils infected with H. pylori and treated with MNU. Type of series: in vivo. An excerpt:
They were divided into two groups: one was fed with AIN-93G diet for mice containing 0.1% of canolol (“canolol-fed group”); the other was fed with the same diet compositions without canolol. […] Ten gerbils per group were examined.
Thin slices obtained from the paraffin blocks were examined with HE (hematoxyline eosin) staining under microscope.

Series [2] is described as follows: Half-life in the culture medium. Type of series: physicochemical. An excerpt:
(§1) At the inflammatory site, peroxynitrite (ONOO^−) is excessively generated as a result of inflammatory reaction, and toxic effect thereof to living cells is one of the cause of pathogenesis. It was anticipated that canolol would exert protective effects against said toxicity of ONOO^− to cultured cells.

In series [3] the test system is Mongolian gerbils infected with Helicobacter pylori ATCC 43504. The experiment in a line: Suppression of gastritis in Mongolian gerbils infected with H. pylori and given MNU (pathology of excised stomach). Type of series: in vivo. As to conditions: diet containing 0.1% canolol for 12 weeks; vs diet without canolol. The source says:
(§2) The six-week old Mongolian gerbils were given drinking water with 10 ppm of MNU (a carcinogen N-methylnitrosourea) for one week followed by oral infection with Helicobacter pylori ATCC 43504 strain, or were orally infected with 1×10^8 CFU of H. pylori and 10 ppm of MNU were then given for one week. They were divided into two groups: one was fed with AIN-93G diet for mice containing 0.1% of canolol (“canolol-fed group”); the other was fed with the same diet compositions without canolol. The experiment was continued for up to 52 weeks (X. Cao et al, Jpn. J. Cancer Res., 93, 1293-1298 (2002), N. Shimizu, et al, Cancer Res., 60, 1512-1514 (2000)). Ten gerbils per group were examined.

The test system of series [4] is 8-oxodeoxyguanosine (8-OHdG). Put plainly: 8-OHdG production in gastric specimens, fluorescent antibody staining. Particulars: after 12 weeks. Format: in vivo, Mongolian gerbils.
Source text: as §2
(§3) 8-OHdG is one of the markers of inflammatory disorders that are generated as a result from a reaction of reactive oxygen species with DNA, said reactive oxygen species being derived from inflammatory cells in vivo. The amount of 8-OHdG produced was studied under similar conditions as Example (1) using a conventional fluorescent antibody staining method with the anti-8-OHdG antibody against excised gastric specimens of each group after 12 weeks.

A further series concerns Helicobacter pylori. Put plainly: H. pylori count in mid-stomach tissues of infected gerbils. Type of series: in vivo. Particulars: after 12 weeks.
Source text: as §2, §3

For series [5], the system named is stomach tissues of gerbils infected with H. pylori. The experiment in a line: Infiltration of neutrophils and hyperplasia in stomach tissues, hematoxylin-eosin staining. As to conditions: 12 weeks. Format: in vivo, Mongolian gerbils.
Source text: as §2
Specimens of Example (1) were prepared 12 weeks after administration. Stomach specimens were prepared and examined under microscope after conventional hematoxylin-eosin staining.

For another series, the system named is cycloxygenase-2 (COX-2). Put plainly: Induction of COX-2 in gastric lesions infected with H. pylori, immunostaining. As to conditions: immunostaining quantification, 12 weeks, n = 10. Type of series: in vivo, Mongolian gerbils.
Source text: as §2
(§4) The expression levels of both enzymes were quantified by means of enzyme antibody using the specimens of Example (1) prepared 12 weeks after administration according to Example (2) . Both COX-2 and iNOS induced during inflammation are typical enzymes to onset an inflammation reaction. Namely, COX-2 produces prostanoid inflammatory mediators such as prostaglandin E2, and iNOS produces nitric oxide (NO), where these mediators and NO evokes inflammation. Both superoxide (O2^−) and NO produced at the site of inflammation immediately react with each other and form more reactive peroxynitrite (ONOO^−) (described later).

For series [6], the system named is inducible form of NO synthase (iNOS). Put plainly: Induction of iNOS in gastric lesions infected with H. pylori, immunostaining. Type of series: in vivo, Mongolian gerbils. Particulars: immunostaining quantification, 12 weeks, n = 10.
Source text: as §2, §4

Series [7] concerns NO production from macrophages. Put plainly: Suppression of NO production from LPS + IFN-γ treated peritoneal macrophages (Gries method). Format: cell-based, BALB/c mice. As to conditions: LPS 1 μg/ml + IFN-γ 0.1 μg/ml, 24 hours. The protocol:
Next, the inflammatorily exuded peritoneal macrophages were treated with bacterial (E. coli) lipopolysaccharide (LPS) (1 μg/ml) and interferon-γ (0.1 μg/ml) in vitro, then the amount of NO, the inflammatory mediator released from the macrophages, was quantified as NO3^−+NO2^− by a conventional method (Gries method) [Stuehr D J, et al, J. Exp. Med., 169, 1543-55 (1989)] (FIG. 4). That is, to the 6-week old female BALB/c mice (SPF), 10% proteose peptone (1 ml) was injected intraperitoneally. The exuded peritoneal macrophages were collected by peritoneal puncture using a needled syringe, centrifuged in the presence of 10% heat-inactivated fetal calf serum and washed. The peritoneal macrophages (1×10^5/well), LPS (1 μg/ml), interferon-γ (IFN-γ) (0.1 μg/ml) and variable doses of canolol (5, 12.5, 25, 50, 100 μM) were plated in the plastic microplate (96-well) (Sumitomo Bakelite, Cat. #MS-8096F), and allowed to incubate for 24 hours at 37° C., under 5% CO2 and 95% air. Then, nitrite and nitrate ions in the supernatant were quantified by the Gries method. The culture medium used for the macrophages was RPMI-1640 containing 10% of heat-inactivated fetal calf serum. As control groups, LPS alone, and LPS+IFN-γ without canolol were used. The vertical axis of FIG. 4 indicates the total amount of nitrate and nitrite ions.

The test system of another series is peritoneal macrophages. The experiment in a line: Effect on survival of macrophages. Type of series: cell-based, BALB/c mice.
In series [8] the test system is human embryonic kidney epithelial cells HEK 293. Put plainly: Neutralization of peroxynitrite (SIN-1) toxicity to cultured cells, MTT method. Format: cell-based. As to conditions: SIN-1 100 μM, HEK 293, MTT.
Source text: as §1
In general terms: Tetrazolium dyes change colour on reduction, which living cells bring about.

The subject of series [9] is Salmonella typhimurium TA102. Put plainly: Suppression of ONOO- induced mutant colony formation (modified Ames medium). Type of series: cell-based. Particulars: 8 μM canolol; ONOO- at or above 4 μM. The protocol: 1×10^8 CFU of Salmonella typhimurium TA102 was taken into a beaker under sterile condition, then ONOO^− was continuously infused under stirring to make a predetermined concentration of ONOO^− between 1-800 μM. (FIG. 7A). An aliquot of S. typhimurium at each time point was removed to a petri dish containing modified Ames medium which permits selective growth of only mutant strains, and was cultured. […] The mutant colonies were formed progressively at or above 4 μM of ONOO^−, while they were not formed with addition of 8 μM canolol.

Setting [10] is: Hp + MNU, number of gerbils, after 57 weeks.
Setting [11] is: mid-stomach tissue, 0.1% canolol diet.

From patent publication US8865775B2, “Anti-inflammatory agent and cancer-preventive agent comprising canolol or prodrug thereof and pharmaceutical, cosmetic and food comprising the same” (priority 2004, dated 2014) come the findings set out here.

In general, half-life refers to how long it takes for the measured level to halve.

The structures appear in SMILES notation. A value given as a limit tells only on which side of the number the result lay.

Regarding `Cc1cc(C(C)(C)C)c(O)c(C(C)(C)C)c1` [BHT, 2,6-di-tert-butyl-4-methylphenol], in series [1] (Hp + MNU, after 57 weeks), the “Incidence of carcinoma, Frequency (%)” value is “(39.4) %” and the “Incidence of carcinoma, Frequency (gerbils with carcinoma/group)” value was 13/33. Besides, in series [1] (setting [10]), the “Incidence of carcinoma, Differentiation” value was found to be 11 and the “Incidence of carcinoma, Undifferentiation” value is on record as 2. Also, the “Rate of suppression (%)” value in [1] (Hp + MNU, vs group I (Hp + MNU), after 57 weeks) was 6.5%.

Molecule `Cl.N=c1c[n+](N2CCOCC2)[n-]o1` [SIN-1, 3-(4-morpholinyl) sydnonimine HCl] showed a half-life in series [2] of 360 min.

Consider `C=Cc1cc(OC)c(O)c(OC)c1` [canolol, 4-vinyl-2,6-dimethoxyphenol], for which the “inflammation of gastric epithelium” value in [3] is recorded as “markedly suppressed”. Besides, in series [4], the “8-OHdG production in vivo” value is “exerted suppressive activity”. Moreover, the “Amount of 8-OHdG (ratio)” value in series [4] (setting [11]) amounted to 19.6 ± 5.5 ratio. Besides, the antibacterial activity result with Helicobacter pylori (in vivo, gerbil stomach) is reported as “did not show any antibacterial activity”. Besides, the “H. pylori count (CFU)” value with Helicobacter pylori (setting [11]) came to 4.42 ± 0.2 CFU. Also, in series [5], the “gastritis in both gastric antrum and corpus” value was “significantly suppressed”. Further, in [5] (n = 10), the “Hyperplasia, Gastric antrum” value was determined as 1.2 ± 0.6; the “Hyperplasia, Gastric corpus” value is given as 0.7 ± 0.2; the “Neutrophil infiltration, Gastric antrum” value amounted to 1.2 ± 0.4; the “Neutrophil infiltration, Gastric corpus” value was found to be 0.9 ± 0.2. Also, in the series on cycloxygenase-2 (COX-2), the “COX-2, Gastric antrum” value is 0.9 ± 0.2 and the “COX-2, Gastric corpus” value was 0.6 ± 0.2. Further, in series [6], the “iNOS, Gastric antrum” value amounted to 0.9 ± 0.1 and the “iNOS, Gastric corpus” value was found to be 0.5 ± 0.1. Further, the effective concentration in series [7] lay in the range of 10 to 100 µM. The “toxicity to macrophages (survival)” value in the series on peritoneal macrophages (at 100 μM) was “essentially non-toxic”. In the series on peritoneal macrophages (macrophages), this molecule displayed a cytotoxic concentration of at least 800 µM. The “concentration that significantly neutralized the toxicity of ONOO-” value in [8] lay within 12.5 to 50 µM. The “suppression of the cancer incidence” value in series [1] (0.1% canolol vs without canolol) is given as 64%. In addition, the cancer incidence in [1] (gerbils fed with 0.1% canolol, around 57 weeks) was 15%. Besides, the “mutant colony formation by ONOO-” value in series [9] is “not formed”.
